Results as given in US20230017045A1, “PYRIDINE AND PYRIMIDINE CARBOXYLATE HERBICIDES AND METHODS OF USE THEREOF” (Dow AgroSciences LLC, priority 2017, published 2023).

These compounds were tested on test plant species (assay: Post-emergent herbicidal activity test (greenhouse, foliar spray, visual growth reduction)). Details: post-emergence, 336 h, ALOMY: blackgrass (Alopecurus myosuroides), 140 g ai/ha, 14 days after application, read-out: Visual Growth Reduction (%) 14 Days After Application, ALOMY.
Assay type: in vivo
Procedure: Post-emergent Test: Seeds or nutlets of the desired test plant species were planted in Sun Gro Metro-Mix® 360 planting mixture, which typically has a pH of 6.0 to 6.8 and an organic matter content of about 30 percent, in plastic pots with a surface area of 64 square centimeters. In some aspects, to ensure good germination and healthy plants, a fungicide treatment and/or other chemical or physical treatment was applied. The plants were grown for 7-21 d in a greenhouse with an approximate 15 h photoperiod which was maintained at 23-29° C. during the day and 22-28° C. during the night. Nutrients and water were added on a regular basis and supplemental lighting was provided with overhead metal halide 1000-Watt lamps as necessary. Plants were used for testing when they reached the first or second true leaf stage. A weighed amount, determined by the highest rate to be tested, of each test compound was placed in a 25 mL glass vial and was dissolved in 4 mL of a 97:3 v/v mixture of acetone and DMSO to obtain concentrated stock solutions. […] The concentrated stock solutions obtained were diluted with 20 mL of an aqueous mixture containing acetone, water, isopropyl alcohol, DMSO, […] crop oil concentrate, and X-77 surfactant in a 48.5:39:10:1.5:1.0:0.02 v/v ratio to obtain spray solutions containing the application rate. Compound requirements are based upon a 12 mL application volume at a rate of 187 liters per hectare (L/ha). Formulated compounds were applied to the plant material with an overhead Mandel track sprayer equipped with […] nozzles calibrated to deliver 187 L/ha over an application area of 0.64 square meters at a spray height of 18 inches (43 cm) above the average plant canopy height. Control plants were sprayed in the same manner with the solvent blank. The treated plants and control plants were placed in a greenhouse as described above and watered by subirrigation to prevent wash-off of the test compounds. After 14 d, the condition of the test plants as compared with that of the nontreated and control plants was determined visually and scored on a scale of 0 to 100 percent where 0 corresponds to no injury and 100 corresponds to complete control. In the reporting of the results, Table A: Percent Growth Reduction Conversion Table was used.
`COC(=O)c1nc(-c2ccc(C(F)(F)F)nc2)c(F)cc1Cl` [F92, methyl 5-chloro-3-fluoro-6′-(trifluoromethyl)-[2,3′-bipyridine]-6-carboxylate] showed a pest or weed control at 140 g/ha of 0 to 29%. `COC(=O)c1nc(-c2ccc(C(F)(F)F)nc2)ccc1Cl` [F114, Methyl 5-chloro-6′-(trifluoromethyl)-[2,3′-bipyridine]-6-carboxylate] was tested, and the pest or weed control at 140 g/ha was 0 to 29%.

Same assay, conditions: post-emergence, 336 h, AMARE: redroot pigweed (Amaranthus retroflexus), 140 g ai/ha, 14 days after application, read-out: Visual Growth Reduction (%) 14 Days After Application, AMARE
For `COC(=O)c1nc(-c2ccc(C(F)(F)F)nc2)c(F)cc1Cl` [F92, methyl 5-chloro-3-fluoro-6′-(trifluoromethyl)-[2,3′-bipyridine]-6-carboxylate], the pest or weed control at 140 g/ha was 0 to 29%. `COC(=O)c1nc(-c2ccc(C(F)(F)F)nc2)ccc1Cl` [F114, Methyl 5-chloro-6′-(trifluoromethyl)-[2,3′-bipyridine]-6-carboxylate] was tested, and the pest or weed control at 140 g/ha was 0 to 29%.

Same assay, conditions: post-emergence, 336 h, AVEFA: wild oat (Avena fatua), 140 g ai/ha, 14 days after application, read-out: Visual Growth Reduction (%) 14 Days After Application, AVEFA
`COC(=O)c1nc(-c2ccc(C(F)(F)F)nc2)c(F)cc1Cl` [F92, methyl 5-chloro-3-fluoro-6′-(trifluoromethyl)-[2,3′-bipyridine]-6-carboxylate] showed a pest or weed control at 140 g/ha of 0 to 29%. With `COC(=O)c1nc(-c2ccc(C(F)(F)F)nc2)ccc1Cl` [F114, Methyl 5-chloro-6′-(trifluoromethyl)-[2,3′-bipyridine]-6-carboxylate] the pest or weed control at 140 g/ha was 0 to 29%.

Same assay, conditions: post-emergence, 336 h, CHEAL: lambsquarters (Chenopodium album), 140 g ai/ha, 14 days after application, read-out: Visual Growth Reduction (%) 14 Days After Application, CHEAL
In the case of `COC(=O)c1nc(-c2ccc(C(F)(F)F)nc2)c(F)cc1Cl` [F92, methyl 5-chloro-3-fluoro-6′-(trifluoromethyl)-[2,3′-bipyridine]-6-carboxylate], the pest or weed control at 140 g/ha was 0 to 29%. Work on `COC(=O)c1nc(-c2ccc(C(F)(F)F)nc2)ccc1Cl` [F114, Methyl 5-chloro-6′-(trifluoromethyl)-[2,3′-bipyridine]-6-carboxylate] yielded a pest or weed control at 140 g/ha of 0 to 29%.

Same assay, conditions: post-emergence, 336 h, CIRAR: canada thistle (Cirsium arvense), 140 g ai/ha, 14 days after application, read-out: Visual Growth Reduction (%) 14 Days After Application, CIRAR
`COC(=O)c1nc(-c2ccc(C(F)(F)F)nc2)c(F)cc1Cl` [F92, methyl 5-chloro-3-fluoro-6′-(trifluoromethyl)-[2,3′-bipyridine]-6-carboxylate] was tested, and the pest or weed control at 140 g/ha was 0 to 29%. `COC(=O)c1nc(-c2ccc(C(F)(F)F)nc2)ccc1Cl` [F114, Methyl 5-chloro-6′-(trifluoromethyl)-[2,3′-bipyridine]-6-carboxylate] showed a pest or weed control at 140 g/ha of 0 to 29%.

Same assay, conditions: post-emergence, 336 h, CYPES: yellow nutsedge (Cyperus esculentus), 140 g ai/ha, 14 days after application, read-out: Visual Growth Reduction (%) 14 Days After Application, CYPES
`COC(=O)c1nc(-c2ccc(C(F)(F)F)nc2)c(F)cc1Cl` [F92, methyl 5-chloro-3-fluoro-6′-(trifluoromethyl)-[2,3′-bipyridine]-6-carboxylate] gave a pest or weed control at 140 g/ha of 0 to 29%. With `COC(=O)c1nc(-c2ccc(C(F)(F)F)nc2)ccc1Cl` [F114, Methyl 5-chloro-6′-(trifluoromethyl)-[2,3′-bipyridine]-6-carboxylate] the pest or weed control at 140 g/ha was 0 to 29%.

Same assay, conditions: post-emergence, 336 h, DIGSA: crabgrass (Digitaria sanguinalis), 140 g ai/ha, 14 days after application, read-out: Visual Growth Reduction (%) 14 Days After Application, DIGSA
For `COC(=O)c1nc(-c2ccc(C(F)(F)F)nc2)c(F)cc1Cl` [F92, methyl 5-chloro-3-fluoro-6′-(trifluoromethyl)-[2,3′-bipyridine]-6-carboxylate], the pest or weed control at 140 g/ha was 30 to 44%. With `COC(=O)c1nc(-c2ccc(C(F)(F)F)nc2)ccc1Cl` [F114, Methyl 5-chloro-6′-(trifluoromethyl)-[2,3′-bipyridine]-6-carboxylate] the pest or weed control at 140 g/ha was 0 to 29%.

Same assay, conditions: post-emergence, 336 h, ECHCG: barnyardgrass (Echinochloa crus-galli), 140 g ai/ha, 14 days after application, read-out: Visual Growth Reduction (%) 14 Days After Application, ECHCG
Work on `COC(=O)c1nc(-c2ccc(C(F)(F)F)nc2)c(F)cc1Cl` [F92, methyl 5-chloro-3-fluoro-6′-(trifluoromethyl)-[2,3′-bipyridine]-6-carboxylate] yielded a pest or weed control at 140 g/ha of 0 to 29%. `COC(=O)c1nc(-c2ccc(C(F)(F)F)nc2)ccc1Cl` [F114, Methyl 5-chloro-6′-(trifluoromethyl)-[2,3′-bipyridine]-6-carboxylate] gave a pest or weed control at 140 g/ha of 0 to 29%.

Same assay, conditions: post-emergence, 336 h, IPOHE: ivy-leaf morning glory (Ipomoea hederacea), 140 g ai/ha, 14 days after application, read-out: Visual Growth Reduction (%) 14 Days After Application, IPOHE
`COC(=O)c1nc(-c2ccc(C(F)(F)F)nc2)c(F)cc1Cl` [F92, methyl 5-chloro-3-fluoro-6′-(trifluoromethyl)-[2,3′-bipyridine]-6-carboxylate] was tested, and the pest or weed control at 140 g/ha was 30 to 44%. `COC(=O)c1nc(-c2ccc(C(F)(F)F)nc2)ccc1Cl` [F114, Methyl 5-chloro-6′-(trifluoromethyl)-[2,3′-bipyridine]-6-carboxylate] showed a pest or weed control at 140 g/ha of 30 to 44%.

Same assay, conditions: post-emergence, 336 h, KCHSC: kochia (Bassia scoparia), 140 g ai/ha, 14 days after application, read-out: Visual Growth Reduction (%) 14 Days After Application, KCHSC
For `COC(=O)c1nc(-c2ccc(C(F)(F)F)nc2)c(F)cc1Cl` [F92, methyl 5-chloro-3-fluoro-6′-(trifluoromethyl)-[2,3′-bipyridine]-6-carboxylate], the pest or weed control at 140 g/ha was 0 to 29%. In the case of `COC(=O)c1nc(-c2ccc(C(F)(F)F)nc2)ccc1Cl` [F114, Methyl 5-chloro-6′-(trifluoromethyl)-[2,3′-bipyridine]-6-carboxylate], the pest or weed control at 140 g/ha was 0 to 29%.

Same assay, conditions: post-emergence, 336 h, ORYSA: rice (Oryza sativa), 140 g ai/ha, 14 days after application, read-out: Visual Growth Reduction (%) 14 Days After Application, ORYSA
With `COC(=O)c1nc(-c2ccc(C(F)(F)F)nc2)c(F)cc1Cl` [F92, methyl 5-chloro-3-fluoro-6′-(trifluoromethyl)-[2,3′-bipyridine]-6-carboxylate] the pest or weed control at 140 g/ha was 0 to 29%. In the case of `COC(=O)c1nc(-c2ccc(C(F)(F)F)nc2)ccc1Cl` [F114, Methyl 5-chloro-6′-(trifluoromethyl)-[2,3′-bipyridine]-6-carboxylate], the pest or weed control at 140 g/ha was 0 to 29%.

Same assay, conditions: post-emergence, 336 h, SETFA: giant foxtail (Setaria faberi), 140 g ai/ha, 14 days after application, read-out: Visual Growth Reduction (%) 14 Days After Application, SETFA
`COC(=O)c1nc(-c2ccc(C(F)(F)F)nc2)c(F)cc1Cl` [F92, methyl 5-chloro-3-fluoro-6′-(trifluoromethyl)-[2,3′-bipyridine]-6-carboxylate] gave a pest or weed control at 140 g/ha of 0 to 29%. With `COC(=O)c1nc(-c2ccc(C(F)(F)F)nc2)ccc1Cl` [F114, Methyl 5-chloro-6′-(trifluoromethyl)-[2,3′-bipyridine]-6-carboxylate] the pest or weed control at 140 g/ha was 0 to 29%.

Same assay, conditions: post-emergence, 336 h, SORVU: grain sorghum (Sorghum vulgare), 140 g ai/ha, 14 days after application, read-out: Visual Growth Reduction (%) 14 Days After Application, SORVU
`COC(=O)c1nc(-c2ccc(C(F)(F)F)nc2)c(F)cc1Cl` [F92, methyl 5-chloro-3-fluoro-6′-(trifluoromethyl)-[2,3′-bipyridine]-6-carboxylate] showed a pest or weed control at 140 g/ha of 0 to 29%. For `COC(=O)c1nc(-c2ccc(C(F)(F)F)nc2)ccc1Cl` [F114, Methyl 5-chloro-6′-(trifluoromethyl)-[2,3′-bipyridine]-6-carboxylate], the pest or weed control at 140 g/ha was 0 to 29%.

Same assay, conditions: post-emergence, 336 h, STEME: common chickweed (Stellaria media), 140 g ai/ha, 14 days after application, read-out: Visual Growth Reduction (%) 14 Days After Application, STEME
`COC(=O)c1nc(-c2ccc(C(F)(F)F)nc2)c(F)cc1Cl` [F92, methyl 5-chloro-3-fluoro-6′-(trifluoromethyl)-[2,3′-bipyridine]-6-carboxylate] gave a pest or weed control at 140 g/ha of 0 to 29%. In the case of `COC(=O)c1nc(-c2ccc(C(F)(F)F)nc2)ccc1Cl` [F114, Methyl 5-chloro-6′-(trifluoromethyl)-[2,3′-bipyridine]-6-carboxylate], the pest or weed control at 140 g/ha was 0 to 29%.

Same assay, conditions: post-emergence, 336 h, TRZAS: wheat, spring (Triticum aestivum), 140 g ai/ha, 14 days after application, read-out: Visual Growth Reduction (%) 14 Days After Application, TRZAS
Work on `COC(=O)c1nc(-c2ccc(C(F)(F)F)nc2)c(F)cc1Cl` [F92, methyl 5-chloro-3-fluoro-6′-(trifluoromethyl)-[2,3′-bipyridine]-6-carboxylate] yielded a pest or weed control at 140 g/ha of 0 to 29%. `COC(=O)c1nc(-c2ccc(C(F)(F)F)nc2)ccc1Cl` [F114, Methyl 5-chloro-6′-(trifluoromethyl)-[2,3′-bipyridine]-6-carboxylate] gave a pest or weed control at 140 g/ha of 0 to 29%.
